This is an account of results in PMC12368482, “Antiprotozoal Activity of Highly Substituted Pyrazole and Pyrimidine Derivatives” (Chemmedchem, 2025).

Data set [1] concerns P. falciparum chloroquine (CQ)‐resistant strain. More on the design: method as in PMID 17949068. Conditions: ref [15]; read-out: IC50 against P. falciparum CQ‐resistant strain; cited from earlier work.
Another data set relates to Leishmania donovani. More on the design: method as in PMID 17949068. To be noted: ref [15]; read-out: IC50 against Leishmania donovani; cited from earlier work.
The next data set has as its system normal myoblast L6 cells. More on the design: method as in PMID 17949068. To be noted: ref [15]; cited from earlier work.
The test system of the next data set is P. falciparum D10. Kind of data set: Antiplasmodial susceptibility assay (pLDH), CQ-sensitive D10 strain. The format is cell-based. To be noted: Plasmodium falciparum; CQ-sensitive strain D10; 72 h; pLDH readout; mean of three independent experiments in duplicate; NA = not active; read-out: IC50 P. falciparum D10. The method, then:
(§1) Continuous in vitro Plasmodium falciparum cultures were carried out according to Trager and Jensen with slight modifications.^[ [38] ^] The CQ‐susceptible strain D10 and the CQ‐resistant strain W2 were maintained at 5% hematocrit (human type A‐positive red blood cells) in RPMI 1640 (EuroClone, Celbio) medium with the addition of 1% AlbuMax (Invitrogen, Milan, Italy), 0.01% hypoxanthine, 20 mM HEPES (at pH 7.4), and 2 mM glutamine. All the cultures were maintained at 37 °C in a low‐oxygen atmosphere consisting of 1% O2, 5% CO2, and 94% N2. Compounds were dissolved in DMSO to a stock concentration of 10 mg/ml and then diluted with complete medium to achieve the desired concentrations (final DMSO concentration <1%, which is nontoxic to the parasite). Derivatives were placed in 96‐well flat‐bottomed microplates in duplicate, and seven 1:2 serial dilutions were made directly in the plate in a volume of 100 μL. Asynchronous cultures with parasitemia of 1%–1.5% (assessed through Giemsa stained blood smears) and 1% final hematocrit were aliquoted into the plates and incubated for 72 h at 37 °C in a final volume of 200 μL/well. Uninfected erythrocytes at 2% hematocrit were used as blank. The antimalarial CQ was tested against the parasite strains as a positive control of inhibition. Parasite growth was determined spectrophotometrically (OD650) by measuring the activity of the parasite lactate dehydrogenase (pLDH), according to a modified version of the method of Makler in control and drug‐treated cultures.^[ [39] ^] The antimalarial activity was expressed as 50% inhibitory concentrations (IC50). The IC50 values were extrapolated from nonlinear regression analysis of the concentration–response curve, using the software Gen5 1.10 provided with the Synergy 4 (BioTek) reader. Each IC50 value was the mean of three independent experiments run in duplicates.

In the next data set the test system is P. falciparum W2. Description: Antiplasmodial susceptibility assay (pLDH), CQ-resistant W2 strain. Conditions: Plasmodium falciparum; CQ-resistant strain W2; 72 h; pLDH readout; mean of three independent experiments in duplicate; NA = not active; read-out: IC50 P. falciparum W2. The format is cell-based. The method, then: as §1
The test system of data set [2] is L. infantum promastigotes. Kind of data set: Antileishmanial evaluation (MTT), promastigotes. The format is cell-based. To be noted: Leishmania infantum, 72 h, NA = not active. Here is the method: (§2) The promastigote stage of L. infantum strain MHOM/TN/80/IPT1 (kindly provided by Dr M. Gramiccia, ISS, Roma) and L. tropica strain (MHOM/IT/2012/ISS3130) were cultured in RPMI 1640 medium (EuroClone) supplemented with 10% heat‐inactivated fetal calf serum (EuroClone), 20 mM Hepes, and 2 mM L‐glutamine at 24 °C. To determine the 50% inhibitory concentration (IC50), the MTT method was used.^[ [40], [41] ^] Compounds were dissolved in DMSO and then diluted with medium to achieve the required concentrations. Drugs were placed in 96 wells round‐bottom microplates and seven serial dilutions made. Amphotericin B was used as reference antiLeishmania drug. Parasites were diluted in complete medium to 5 × 10^6 parasites mL^−1 and 100 μL of the suspension was added to each well. The plates were incubated at 24 °C for 72 h, after the incubation 20 μL of MTT solution (5 mg mL^−1) was added to each well and incubated for additional 3 h. The plates were then centrifuged at 1000 × g for 8 min at room temperature and the supernatants were discarded. The resulting pellets were dissolved in 100 μL of lysing buffer consisting of 20% w/v of a solution of SDS (Sigma), 40% of DMF (Merck) in H2O. The absorbance was measured spectrophotometrically at a test wavelength of 550 nm and a reference wavelength of 650 nm. The results were expressed as IC50 which was the concentration of compound necessary to inhibit parasite growth by 50%; each IC50 value was the mean of separate experiments performed in duplicate.

The next data set deals with L. tropica promastigotes. Description: Antileishmanial evaluation (MTT), promastigotes. Format: cell-based. To be noted: Leishmania tropica, 72 h, NA = not active. Here is the method: as §2
Data set [3] can be described thus: MTT cytotoxicity assay on fibroblasts. The format is cell-based. Conditions: human, GM-6114 embryonic human fibroblasts, compounds tested at 10 μM for 48 h, percentage of control, read-out: Cell viability GM‐6114. Here is the method:
MTT assays: MTT assays were performed using GM‐6114 (embryonic human fibroblast, ATCC, Manassas, VA). The cells were grown in DMEM with 10% FBS, 2 mM glutamine, and 1% penstrep and incubated at 37 °C in 5% CO2 in a humidified environment. All reagents were purchased from EuroClone (Milan, Italy). Briefly, the cell line was plated in 96 well plates at an adequate number to reach 80%–90% of confluence at the end of the assay. 16 h after cell plating, compounds were dissolved in DMSO to give a 10 mM stock solution, diluted in growth medium, and added at a final working concentration of 10 μM. After 48 h of incubation, 30 μL of 3‐(4,5‐dimethyl‐2‐thiazolyl)‐2,5‐diphenyl‐2H‐tetrazolium bromide (MTT) at a concentration of 2 mg mL^−1 in PBS were added in each well. Then, after further 4 h of incubation, the supernatant was removed, and 100 μL/well of DMSO were used to dissolve the formazan precipitate that could be found in vital cells. After 20 min, the results were read at 570 nm by means of a plate reader. The results were expressed as percentage of the control samples in which the cells were incubated with the same amount of DMSO but without compounds. The assays were repeated three times. In each set, every single compound was tested six times. Variation among duplicates was less than 10%.

Each structure is given as a SMILES string.

As for `O=[N+]([O-])c1ccc(-n2nc(-c3ccc(Oc4ccccc4)cc3)cc2N2CCOCC2)cc1` [II], the IC50 (as a rule, the midpoint of a concentration-inhibition curve) is 3.7 µM in data set [1] and 4.8 µM with Leishmania donovani. The “cytotoxicity against normal myoblast L6 cells” value with normal myoblast L6 cells is on record as “not cytotoxic”.

In the case of `N#Cc1c(-c2ccc(Cl)cc2)n[nH]c1Nc1ccccc1` [VIb, reference compound], the half-inhibitory concentration (IC50) amounted to 34.3 µM with P. falciparum D10, 32.7 µM with P. falciparum W2, 19.1 µM in data set [2] and 23.2 µM in the data set on L. tropica promastigotes. Further, the viability (commonly a read-out of living cells in per cent, often relative to untreated cells) at 48 h, 10 μM in data set [3] was 70%.

For the molecule `N#Cc1c(-c2ccc(Br)cc2)n[nH]c1Nc1ccccc1` [VIc, reference compound], the IC50 is 19.8 µM with P. falciparum D10, 19.9 µM in the data set with P. falciparum W2, 19.3 µM in data set [2] and 23.2 µM in the data set with L. tropica promastigotes. Further, the viability at 48 h, 10 μM in data set [3] was determined as 67%.
